Laboratory results taken from PubChem BioAssay AID588343 (Broad Institute, 2011).
Several values for one entry are separate records, joined by “and”; a condition that tells them apart may be missing. Identical values can stand only once. Inconclusive results are not listed.

test system: HEK293 LMP1 TES2 NF-kB luciferase reporter, 16 h; experiment: EBV LMP1 TES2 canonical NF-kB signalling blockers – cell-based, HEK293, luciferase, cherry-pick, dose response (AID 588343);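 further: potency of compounds lowering the induced NF-kB luciferase signal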

SMILES | AC50
Nc1ccn([C@@H]2O[C@H](CO)[C@@H](O)[C@@H]2O)c(=O)n1 | 13200 nM
CCN1CCN(Cc2ccc(NC(=O)c3ccc(C)c(NC(=O)N4CCNC4=O)c3)cc2C(F)(F)F)CC1 | 484 nM and 1060 nM and 977 nM
CCN1CCN(Cc2ccc(NC(=O)c3ccc(C)c(NC(=O)c4cccc5[nH]ccc45)c3)cc2C(F)(F)F)CC1 | 418 nM and 146 nM
COc1ccc(O)c2c(=O)c3c(OC)cc4c(c3oc12)C1C=COC1O4 (stereo unspecified) | 698 nM
Nc1ccn([C@@H]2O[C@H](CO)[C@@H](O)C2O)c(=O)n1 (stereo partly specified) | 4970 nM
Cc1ccc(C(=O)Nc2cccc(C(F)(F)F)c2)cc1NC(=O)c1ccno1 | 816 nM and 5400 nM
